Assay results as given in patent US10118901B2 (priority 2013, dated 2018).

Assays:
[1] = test system: 60 cancer cell lines; assay: NCI-60 DTP human tumor cell line screen at 10 μM, whole panel; assay type: cell-based; conditions: for Growth %, Median: 10 μM single dose, median over cell lines; for mean growth percent in the 60 cancer cell lines: single dose of about 10 μM
Procedure: (§1) NL-101 and CY-102 was sent to U.S. National Cancer Institute (NCI) for NCI 60-cell line screening using a single compound dose (10 μM).
The human tumor cell lines of the cancer screening panel were grown in RPMI 1640 medium containing 5% fetal bovine serum (5% FBS) and 2 mM L-glutamine. For a typical screening experiment, cells were inoculated into 96-well microtiter plates in 100 μL, at plating densities ranging from 5,000 to 40,000 cells/well depending on the doubling time of individual cell lines. After cell inoculation, the microtiter plates were incubated at 37° C., 5% CO2, 95% air, and 100% relative humidity for 24 h prior to addition of experimental compounds. After 24 hr, two plates of each cell line were fixed in situ with TCA, to represent a measurement of the cell population for each cell line at the time of drug addition (Tz). Experimental drugs were solubilized in dimethyl sulfoxide at 400-fold the desired final maximum test concentration and stored frozen prior to use. At the time of drug addition, an aliquot of frozen concentrate was thawed and diluted to twice the desired final maximum test concentration with complete medium containing 50 μg/ml gentamicin. Aliquots of 100 μL of these different drug dilutions were added to the appropriate microtiter wells already containing 100 μL of medium, resulting in the required final drug concentrations.
Following drug addition, the plates were incubated for an additional 48 hrs at 37° C., 5% CO2, 95% air, and 100% relative humidity. For adherent cells, the assay was terminated by the addition of cold TCA. Cells were then fixed in situ by the gentle addition of 50 μL of cold 50% (w/v) TCA (final concentration, 10% TCA) and incubated for 60 minutes at 4° C. The supernatant was discarded, and the plates were washed five times with tap water and air dried. Sulforhodamine B (SRB) solution (100 μL) at 0.4% (w/v) in 1% acetic acid was added to each well, and plates were incubated for 10 minutes at room temperature. After staining, unbound dye was removed by washing five times with 1% acetic acid and the plates were air dried. Bound stain was subsequently solubilized with 10 mM trizma base, and the absorbance was read on an automated plate reader at a wavelength of 515 nm. […]
(§2) Using the seven absorbance measurements [time zero, (Tz), control growth, (C), and test growth in the presence of drug at the 10 μM concentration levels (Ti)], percentage growth was calculated at each of the drug concentrations levels. Percentage growth inhibition was calculated as: [(Ti−Tz)/(C−Tz)]×100 for which Ti>/=Tz or [(Ti−Tz)/Tz]×100 for which Ti<Tz.

[2] = test system: HL-60(TB); assay type: cell-based, human
[3] = test system: MOLT-4; assay: NCI-60 screen at 10 μM: MOLT-4; assay type: cell-based, human; conditions: Leukemia MOLT-4; 10 μM single dose; 48 hrs
Procedure: as §1
(§3) The human tumor cell lines of the cancer screening panel were grown in RPMI 1640 medium containing 5% fetal bovine serum (5% FBS) and 2 mM L-glutamine. For a typical screening experiment, cells were inoculated into 96-well microtiter plates in 100 μL, at plating densities ranging from 5,000 to 40,000 cells/well depending on the doubling time of individual cell lines. After cell inoculation, the microtiter plates were incubated at 37° C., 5% CO2, 95% air, and 100% relative humidity for 24 h prior to addition of experimental compounds. […]
(§4) Following drug addition, the plates were incubated for an additional 48 hrs at 37° C., 5% CO2, 95% air, and 100% relative humidity. […] Bound stain was subsequently solubilized with 10 mM trizma base, and the absorbance was read on an automated plate reader at a wavelength of 515 nm. […]
as §2

[4] = test system: RPMI-8226; assay: NCI-60 screen at 10 μM: RPMI-8226; assay type: cell-based, human; conditions: Leukemia RPMI-8226; 10 μM single dose; 48 hrs
Procedure: as §1, §3, §4, §2

[5] = test system: A549/ATCC; assay: NCI-60 screen at 10 μM: A549/ATCC; assay type: cell-based, human; conditions: NSCLC A549/ATCC; 10 μM single dose; 48 hrs
Procedure: as §1, §3, §4, §2

[6] = test system: HOP-62; assay: NCI-60 screen at 10 μM: HOP-62; assay type: cell-based, human; conditions: NSCLC HOP-62; 10 μM single dose; 48 hrs
Procedure: as §1, §3, §4, §2

[7] = test system: HOP-92; assay: NCI-60 screen at 10 μM: HOP-92; assay type: cell-based, human; conditions: NSCLC HOP-92; 10 μM single dose; 48 hrs
Procedure: as §1, §3, §4, §2

[8] = test system: NCI-H322M; assay: NCI-60 screen at 10 μM: NCI-H322M; assay type: cell-based, human; conditions: NSCLC NCI-H322M; 10 μM single dose; 48 hrs
Procedure: as §1, §3, §4, §2

[9] = test system: NCI-H460; assay: NCI-60 screen at 10 μM: NCI-H460; assay type: cell-based, human; conditions: NSCLC NCI-H460; 10 μM single dose; 48 hrs
Procedure: as §1, §3, §4, §2

[10] = test system: COLO 205; assay: NCI-60 screen at 10 μM: COLO 205; assay type: cell-based, human; conditions: Colon Cancer COLO 205; 10 μM single dose; 48 hrs
Procedure: as §1, §3, §4, §2

[11] = test system: HCC-2998; assay: NCI-60 screen at 10 μM: HCC-2998; assay type: cell-based, human; conditions: Colon Cancer HCC-2998; 10 μM single dose; 48 hrs
Procedure: as §1, §3, §4, §2

[12] = test system: SF-295; assay: NCI-60 screen at 10 μM: SF-295; assay type: cell-based, human; conditions: CNS Cancer (Glioma) SF-295; 10 μM single dose; 48 hrs
Procedure: as §1, §3, §4, §2

[13] = test system: SNB-19; assay: NCI-60 screen at 10 μM: SNB-19; assay type: cell-based, human; conditions: CNS Cancer (Glioma) SNB-19; 10 μM single dose; 48 hrs
Procedure: as §1, §3, §4, §2

[14] = test system: U251; assay: NCI-60 screen at 10 μM: U251; assay type: cell-based, human; conditions: CNS Cancer (Glioma) U251; 10 μM single dose; 48 hrs
Procedure: as §1, §3, §4, §2

[15] = test system: SK-MEL-28; assay: NCI-60 screen at 10 μM: SK-MEL-28; assay type: cell-based, human; conditions: Melanoma SK-MEL-28; 10 μM single dose; 48 hrs
Procedure: as §1, §3, §4, §2

[16] = test system: UACC-257; assay: NCI-60 screen at 10 μM: UACC-257; assay type: cell-based, human; conditions: Melanoma UACC-257; 10 μM single dose; 48 hrs
Procedure: as §1, §3, §4, §2

[17] = test system: OVCAR-5; assay: NCI-60 screen at 10 μM: OVCAR-5; assay type: cell-based, human; conditions: Ovarian Cancer OVCAR-5; 10 μM single dose; 48 hrs
Procedure: as §1, §3, §4, §2

[18] = test system: OVCAR-8; assay: NCI-60 screen at 10 μM: OVCAR-8; assay type: cell-based, human; conditions: Ovarian Cancer OVCAR-8; 10 μM single dose; 48 hrs
Procedure: as §1, §3, §4, §2

[19] = test system: NCI/ADR-RES; assay: NCI-60 screen at 10 μM: NCI/ADR-RES; assay type: cell-based, human; conditions: Ovarian Cancer NCI/ADR-RES; 10 μM single dose; 48 hrs
Procedure: as §1, §3, §4, §2

[20] = test system: A498; assay: NCI-60 screen at 10 μM: A498; assay type: cell-based, human; conditions: Renal Cancer A498; 10 μM single dose; 48 hrs
Procedure: as §1, §3, §4, §2

[21] = test system: ACHN; assay: NCI-60 screen at 10 μM: ACHN; assay type: cell-based, human; conditions: Renal Cancer ACHN; 10 μM single dose; 48 hrs
Procedure: as §1, §3, §4, §2

[22] = test system: TK-10; assay: NCI-60 screen at 10 μM: TK-10; assay type: cell-based, human; conditions: Renal Cancer TK-10; 10 μM single dose; 48 hrs
Procedure: as §1, §3, §4, §2

[23] = test system: T-47D; assay: NCI-60 screen at 10 μM: T-47D; assay type: cell-based, human; conditions: Breast Cancer T-47D; 10 μM single dose; 48 hrs
Procedure: as §1, §3, §4, §2

[24] = test system: MDA-MB-468; assay: NCI-60 screen at 10 μM: MDA-MB-468; assay type: cell-based, human; conditions: Breast Cancer MDA-MB-468; 10 μM single dose; 48 hrs
Procedure: as §1, §3, §4, §2

Row | Compound | Growth %, Median [1] | mean growth percent in the 60 cancer cell lines [1] | Growth % [2] | Growth % [3] | Growth % [4] | Growth % [5] | Growth % [6] | Growth % [7] | Growth % [8] | Growth % [9] | Growth % [10] | Growth % [11] | Growth % [12] | Growth % [13] | Growth % [14] | Growth % [15] | Growth % [16] | Growth % [17] | Growth % [18] | Growth % [19] | also measured
1 | Cn1c(CCNCc2ccc(/C=C/C(=O)NO)cc2)nc2cc(N(CCCl)CCCl)ccc21 [CY-102] | −28.5% | −28% | −10.34% | 2.17% | 2.28% | −32.69% | −30.02% | −35.89% | −15.30% | 2.61% | −81.34% | −80.55% | −53.87% | −10.81% | −39.66% | −21.36% | −36.39% | −3.75% | −26.88% | 17.78% | Growth % [20]: −81.56%; Growth % [21]: −19.97%; Growth % [22]: −28.81%; Growth % [23]: −27.48%; Growth % [24]: −21.52%
2 | Cn1c(CCCCCCC(=O)NO)nc2cc(N(CCCl)CCCl)ccc21 [NL-101] | 36.35% | 36% | 18.98% | 18.01% | 49.23% | 43.54% | 13.56% | 22.07% | 75.30% | 25.56% | 54.36% | 86.98% | 43.95% | 55.62% | 35.03% | 59.32% | 33.75% | 66.28% | 32.65% | 77.80% | Growth % [20]: 49.70%; Growth % [21]: 14.30%; Growth % [22]: 48.48%; Growth % [23]: −16.57%; Growth % [24]: −34.68%
